Data reported in patent US20240026086A1, “POLYPHENOL DERIVATIVE AND POLYMER MATERIAL” (TOPPAN INC., priority 2020, published 2024).

System: E. coli
Test: Antibacterial test of coating films on glass substrate in accordance with JIS 22801
Assay type: cell-based
Details: against E. coli
Description: The polyphenol derivatives (polyphenol derivatives 1 to 4) in Examples 1 to 4 and the tannic acid in Comparative Example 1 were each applied by the above method onto a 5 cm×5 cm glass substrate at a weight of 1.2 mg/cm 2 to yield a coating film. The glass substrate samples in Examples and Comparative Example each having the coating film formed by the above method were subjected to antibacterial test by a method in accordance with JIS 22801, and antibacterial activity values (against E. coli) were determined.

SMILES: O=C(OC[C@H]1O[C@@H](OC(=O)c2cc(O)c(O)c(OC(=O)c3cc(O)c(O)c(O)c3)c2)[C@H](OC(=O)c2cc(O)c(O)c(OC(=O)c3cc(O)c(O)c(O)c3)c2)[C@@H](OC(=O)c2cc(O)c(O)c(OC(=O)c3cc(O)c(O)c(O)c3)c2)[C@@H]1OC(=O)c1cc(O)c(O)c(OC(=O)c2cc(O)c(O)c(O)c2)c1)c1cc(O)c(O)c(OC(=O)c2cc(O)c(O)c(O)c2)c1 [compound 1, tannic acid]
- Antibacterial test (antibacterial activity value) (coating film 1.2 mg/cm 2 on 5 cm×5 cm glass substrate): >5.8
- antibacterial activity (in words) (coating film): antibacterial activity was sufficiently achieved
